Source: patent publication US9650340B2, “5-fluoro-N-(pyridin-2-yl)pyridin-2-amine derivatives containing a sulfoximine group” (BAYER PHARMA AKTIENGESELLSCHAFT, priority 2012, dated 2017)
Counter-ions that a name gives are not always drawn. Like-named read-outs stand apart in the source and are kept apart here.

Assays:
[1] = system: MOLM-13 human acute myeloid leukemia cells; test: Proliferation assay, MOLM-13 (Cell Titre-Glo); type: cell-based; conditions: Homo sapiens, MOLM-13, 72 h, MOLM-13, 72-hour exposure; read-out: Inhibition of MOLM-13 cell proliferation IC50
Experimental: (§1) Cultivated tumour cells (HeLa, human cervical tumour cells, ATCC CCL-2; NCI-H460, human non-small cell lung carcinoma cells, ATCC HTB-177; A2780, human ovarian carcinoma cells, ECACC #93112519; DU 145, hormone-independent human prostate carcinoma cells, ATCC HTB-81; HeLa-MaTu-ADR, multidrug-resistant human cervical carcinoma cells, EPO-GmbH Berlin; Caco-2, human colorectal carcinoma cells, ATCC HTB-37; B16F10, mouse melanoma cells, ATCC CRL-6475) were plated at a density of 5,000 cells/well (DU145, HeLa-MaTu-ADR), 3,000 cells/well (NCI-H460, HeLa), 2,500 cells/well (A2780), 1,500 cells/well (Caco-2), or 1,000 cells/well (B16F10) in a 96-well multititer plate in 200 μL of their respective growth medium supplemented 10% fetal calf serum. After 24 hours, the cells of one plate (zero-point plate) were stained with crystal violet (see below), while the medium of the other plates was replaced by fresh culture medium (200 μl), to which the test substances were added in various concentrations (0 μM, as well as in the range of 0.001-10 μM; the final concentration of the solvent dimethyl sulfoxide was 0.5%). The cells were incubated for 4 days in the presence of test substances. Cell proliferation was determined by staining the cells with crystal violet: the cells were fixed by adding 20 μl/measuring point of an 11% glutaric aldehyde solution for 15 minutes at room temperature. After three washing cycles of the fixed cells with water, the plates were dried at room temperature. The cells were stained by adding 100 μl/measuring point of a 0.1% crystal violet solution (pH 3.0). After three washing cycles of the stained cells with water, the plates were dried at room temperature. The dye was dissolved by adding 100 μl/measuring point of a 10% acetic acid solution. The extinction was determined by photometry at a wavelength of 595 nm. The change of cell number, in percent, was calculated by normalization of the measured values to the extinction values of the zero-point plate (=0%) and the extinction of the untreated (0 μm) cells (=100%). The IC50 values (inhibitory concentration at 50% of maximal effect) were determined by means of a 4 parameter fit. Non-adherent MOLM-13 human acute myeloid leukemia cells (DSMZ ACC 554) were seeded at a density of 5,000 cells/well in a 96-well multititer plate in 100 μL of growth medium supplemented 10% fetal calf serum. After 24 hours, cell viability of one plate (zero-point plate) was determined with the Cell Titre-Glo Luminescent Cell Viability Assay (Promega), while 50 μL of test compound containing medium was added to the wells of the other plates (final concentrations in the range of 0.001-10 μM and DMSO controls; the final concentration of the solvent dimethyl sulfoxide was 0.5%). Cell viability was assessed after 72-hour exposure with the Cell Titre-Glo Luminescent Cell Viability Assay (Promega).

CDK2/CycE = target: T1, CDK2/CycE (Homo sapiens, UniProt P24941); test: CDK2/CycE kinase assay (TR-FRET, 10 μM ATP); type: biochemical; conditions: Method 2 (2a)
T1 construct: GST; purchased ProQinase GmbH (Freiburg, Germany); host or cells: insect cells (Sf9)
Text: 2a. CDK2/CycE Kinase Assay:
CDK2/CycE-inhibitory activity of compounds of the present invention was quantified employing the CDK2/CycE TR-FRET assay as described in the following paragraphs:
Recombinant fusion proteins of GST and human CDK2 and of GST and human CycE, expressed in insect cells (Sf9) and purified by Glutathion-Sepharose affinity chromatography, were purchased from ProQinase GmbH (Freiburg, Germany). As substrate for the kinase reaction biotinylated peptide biotin-Ttds-[…] (C-terminus in amid form) was used which can be purchased e.g. form the company JERINI Peptide Technologies (Berlin, Germany).
For the assay 50 nl of a 100 fold concentrated solution of the test compound in DMSO was pipetted into a black low volume 384 well microtiter plate (Greiner Bio-One, Frickenhausen, Germany), 2 μl of a solution of CDK2/CycE in aqueous assay buffer [50 mM Tris/HCl pH 8.0, 10 mM MgCl2, 1.0 mM dithiothreitol, 0.1 mM sodium ortho-vanadate, 0.01% (v/v) Nonidet-P40 (Sigma)] were added and the mixture was incubated for 15 min at 22° C. to allow pre-binding of the test compounds to the enzyme before the start of the kinase reaction. Then the kinase reaction was started by the addition of 3 μl of a solution of adenosine-tri-phosphate (ATP, 16.7 μM=>final conc. in the 5 μl assay volume is 10 μM) and substrate (1.25 μM=>final conc. in the 5 μl assay volume is 0.75 μM) in assay buffer and the resulting mixture was incubated for a reaction time of 25 min at 22° C. The concentration of CDK2/CycE was adjusted depending of the activity of the enzyme lot and was chosen appropriate to have the assay in the linear range, typical concentrations were in the range of 130 ng/mL The reaction was stopped by the addition of 5 μl of a solution of TR-FRET detection reagents (0.2 μM streptavidine-XL665 [Cisbio Bioassays, Codolet, France] and 1 nM anti-RB(pSer807/pSer811)-antibody from BD Pharmingen [#558389] and 1.2 nM LANCE EU-W1024 labeled anti-mouse IgG antibody [Perkin-Elmer, product no. AD0077]) in an aqueous EDTA-solution (100 mM EDTA, 0.2% (w/v) bovine serum albumin in 100 mM HEPES/NaOH pH 7.0).
The resulting mixture was incubated 1 h at 22° C. to allow the formation of complex between the phosphorylated biotinylated peptide and the detection reagents. Subsequently the amount of phosphorylated substrate was evaluated by measurement of the resonance energy transfer from the Eu-chelate to the streptavidine-XL. Therefore, the fluorescence emissions at 620 nm and 665 nm after excitation at 350 nm was measured in a TR-FRET reader, e.g. a Rubystar (BMG Labtechnologies, Offenburg, Germany) or a Viewlux (Perkin-Elmer). The ratio of the emissions at 665 nm and at 622 nm was taken as the measure for the amount of phosphorylated substrate.

[2] = system: HeLa, human cervical tumour cells; test: Proliferation assay, HeLa (crystal violet); type: cell-based; conditions: 4 days, read-out: Inhibition of HeLa cell proliferation IC50
Experimental: as §1

[3] = system: B16F10, mouse melanoma cells; test: Proliferation assay, B16F10 (crystal violet); type: cell-based; conditions: B16F10, 4 days, read-out: Inhibition of B16F10 cell proliferation IC50
Experimental: as §1

[4] = system: HeLa-MaTu-ADR, multidrug-resistant human cervical carcinoma cells; test: Proliferation assay, HeLa-MaTu-ADR (crystal violet); type: cell-based; conditions: 4 days, read-out: Inhibition of HeLa-MaTu-ADR cell proliferation IC50
Experimental: as §1

[5] = system: Caco-2, human colorectal carcinoma cells; test: Proliferation assay, Caco-2 (crystal violet); type: cell-based; conditions: Caco-2, 4 days, read-out: Inhibition of Caco-2 cell proliferation IC50
Experimental: as §1

| Compound | IC50 [1] [nM] | IC50 (CDK2/CycE) [nM] | IC50 ([2]; Homo sapiens, 96 h) [nM] | IC50 ([3]; Mus musculus, B16-F10, 96 h) [nM] | IC50 ([4]; Homo sapiens, 96 h) [nM] | IC50 ([5]; Homo sapiens, Caco-2, 96 h) [nM] | IC50 [2] [nM] | IC50 [3] [nM] | IC50 [4] [nM] | IC50 [5] [nM] |
| --- | --- | --- | --- | --- | --- | --- | --- | --- | --- | --- |
| COc1cc(F)ccc1-c1cc(Nc2cc(CS(C)(=N)=O)cc(C)n2)ncc1F (racemic) [Example 4, (rac)-5-Fluoro-4-(4-fluoro-2-methoxyphenyl)-N-{6-methyl-4-[(S-methylsulfonimidoyl)methyl]pyridin-2-yl}pyridin-2-amine] | 35 | 120 | 35 | 100 | 34 | 68 |  |  |  |  |
| COc1cc(CS(C)(=N)=O)cc(Nc2cc(-c3ccc(F)cc3OC)c(F)cn2)n1 (racemic) [Example 6, (rac)-5-Fluoro-4-(4-fluoro-2-methoxyphenyl)-N-{6-methoxy-4-[(S-methylsulfonimidoyl)methyl]pyridin-2-yl}pyridin-2-amine] | 11 | 4 | 21 | 33 | 30 | 31 |  |  |  |  |
| COc1cc(F)ccc1-c1cc(Nc2cc(CS(C)(=N)=O)cc(Cl)n2)ncc1F (racemic) [Example 7, (rac)-N-{6-Chloro-4-[(S-methylsulfonimidoyl)methyl]pyridin-2-yl}-5-fluoro-4-(4-fluoro-2-methoxyphenyl)pyridin-2-amine] | 28 | 44 | 32 | 34 | 32 | 41 |  |  |  |  |
| CCOC(=O)N=S(C)(=O)Cc1ccnc(Nc2cc(-c3ccc(F)cc3OC)c(F)cn2)c1 (racemic) [Example 11, (rac)-Ethyl{[(2-{[5-fluoro-4-(4-fluoro-2-methoxyphenyl)pyridin-2-yl]amino}pyridin-4-yl)methyl](methyl)oxido-λ^6-sulfanylidene}carbamate] | 42 | 170 | 72 | 180 | 100 | 110 |  |  |  |  |
| CCNC(=O)N=S(C)(=O)Cc1ccnc(Nc2cc(-c3ccc(F)cc3OC)c(F)cn2)c1 (racemic) [Example 12, (rac)-1-Ethyl-3-{[(2-{[5-fluoro-4-(4-fluoro-2-methoxyphenyl)pyridin-2-yl]amino}pyridin-4-yl)methyl](methyl)oxido-λ^6-sulfanylidene}urea] | 29 | 140 | 34 | 130 | 100 | 98 |  |  |  |  |

The remaining lines, values ahead:

| IC50 [1] [nM] | IC50 (CDK2/CycE) [nM] | IC50 ([2]; Homo sapiens, 96 h) [nM] | IC50 ([3]; Mus musculus, B16-F10, 96 h) [nM] | IC50 ([4]; Homo sapiens, 96 h) [nM] | IC50 ([5]; Homo sapiens, Caco-2, 96 h) [nM] | IC50 [2] [nM] | IC50 [3] [nM] | IC50 [4] [nM] | IC50 [5] [nM] | Compound |
| --- | --- | --- | --- | --- | --- | --- | --- | --- | --- | --- |
| 19 | 410 | 95 | 110 | 61 | 45 |  |  |  |  | COc1cc(F)ccc1-c1cc(Nc2cc(CS(C)(=N)=O)ccn2)ncc1F (racemic) [Example 1, (rac)-5-Fluoro-4-(4-fluoro-2-methoxyphenyl)-N-{4-[(S-methylsulfonimidoyl)methyl]pyridin-2-yl}pyridin-2-amine] |
| 55 | 430 | 140 | 186 | 200 | 160 |  |  |  |  | COc1cc(F)ccc1-c1cc(Nc2cc(CS(=N)(=O)CCO)ccn2)ncc1F (racemic) [Example 8, (rac)-2-{S-[(2-{[5-Fluoro-4-(4-fluoro-2-methoxyphenyl)pyridin-2-yl]amino}pyridin-4-yl)methyl]sulfonimidoyl}ethanol] |
| 120 | 240 | 410 |  |  |  |  |  |  |  | COc1cc(F)ccc1-c1cc(Nc2cc(CS(=N)(=O)CCN)ccn2)ncc1F (racemic) [Example 9, (rac)-N-(4-{[S-(2-Aminoethyl)sulfonimidoyl]methyl}pyridin-2-yl)-5-fluoro-4-(4-fluoro-2-methoxyphenyl)pyridin-2-amine] |
| 29 | 130 | 100 | 180 | 110 | 120 |  |  |  |  | COc1cc(F)ccc1-c1cc(Nc2cc(CS(C)(=O)=NC(C)=O)ccn2)ncc1F (racemic) [Example 13, (rac)-N-{[(2-{[5-Fluoro-4-(4-fluoro-2-methoxyphenyl)pyridin-2-yl]amino}pyridin-4-yl)methyl](methyl)oxido-λ^6-sulfanylidene}acetamide] |
|  | 430 |  |  |  |  | 63 | 150 | 110 | 120 | COc1cc(F)ccc1-c1cc(Nc2cc(CS(C)(=N)=O)ccn2)ncc1F (single isomer, unassigned; enantiomer 1) [Example 16, 5-Fluoro-4-(4-fluoro-2-methoxyphenyl)-N-{4-[(S-methylsulfonimidoyl)methyl]pyridin-2-yl}pyridin-2-amine hydrochloride; enantiomer 1] |
|  | 200 |  |  |  |  | 42 | 73 | 46 | 37 | COc1cc(F)ccc1-c1cc(Nc2cc(CS(C)(=N)=O)ccn2)ncc1F.Cl (single isomer, unassigned; enantiomer 2) [Example 14, 5-Fluoro-4-(4-fluoro-2-methoxyphenyl)-N-{4-[(S-methylsulfonimidoyl)methyl]pyridin-2-yl}pyridin-2-amine hydrochloride; enantiomer 2] |
